According to the supplement of paper PMC11061612:

Tests used:
[1] = system: SK-GT-2 (Gastric Carcinoma); experiment: Bliss excess, mean over the matrix (fraction); higher = more synergy
Outline: (§1)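 Cell lines grown in DMEM/F12 or RPMI with 10% FBS were plated in 1536-well plates and held 24 hours at 37°C, 5% CO2 before 72 hours of exposure to two-drug dose matrices, with DMSO typically at 0.2%. CellTiter-Glo 2.0 luminescence gave viability, which was converted to inhibition. Vehicle wells were set to 0 and blank wells to 1. Combination Emax is the second-highest inhibition in the matrix, and Bliss excess is the observed combination effect minus the expected EA + EB − EA·EB, where EA and EB are the single-agent effects.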

[2] = system: NCI-H526 (Small Cell Lung Carcinoma); experiment: as above
Outline: as §1

[3] = system: H9 (T-Cell Non-Hodgkin's Lymphoma); experiment: as above
Outline: as §1

[4] = system: VMRC-RCZ (Kidney Carcinoma); experiment: as above
Outline: as §1

[5] = system: MN-60 (B-Lymphoblastic Leukemia); experiment: as above
Outline: as §1

G-361 (Melanoma) = experiment: as above
Outline: as §1

[6] = system: COR-L279 (Small Cell Lung Carcinoma); experiment: as above
Outline: as §1

[7] = system: ESO51 (Esophageal Adenocarcinoma); experiment: as above
Outline: as §1

NCI-H2731 (Mesothelioma) = experiment: as above
Outline: as §1

[8] = system: IM-95 (Gastric Carcinoma); experiment: as above
Outline: as §1

[9] = system: CHSA8926 (Chondrosarcoma); experiment: as above
Outline: as §1

[10] = system: KYSE-270 (Esophageal Squamous Cell Carcinoma); experiment: as above
Outline: as §1

[11] = system: KU812 (Chronic Myelogenous Leukemia); experiment: as above
Outline: as §1

[12] = system: CW-2 (Colorectal Carcinoma); experiment: as above
Outline: as §1

[13] = system: T-T (Esophageal Squamous Cell Carcinoma); experiment: as above
Outline: as §1

[14] = system: SK-GT-4 (Esophageal Adenocarcinoma); experiment: as above
Outline: as §1

[15] = system: SU-DHL-5 (B-Cell Non-Hodgkin's Lymphoma); experiment: as above
Outline: as §1

[16] = system: JHH-4 (Hepatocellular Carcinoma); experiment: as above
Outline: as §1

[17] = system: SUP-B15 (B-Lymphoblastic Leukemia); experiment: as above
Outline: as §1

[18] = system: SK-GT-2 (Gastric Carcinoma); experiment: combination Emax (second highest fraction inhibited in the dose matrix, 72 h); higher = more inhibition; extreme values may be limits of the assay
Outline: as §1
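Wherever Bliss excess, mean over the matrix is given: after 72 h of two-drug dosing.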

| Compound | Bliss excess [1] | Bliss excess [2] | Bliss excess [3] | Bliss excess [4] | Bliss excess [5] | Bliss excess (G-361 (Melanoma)) | Bliss excess [6] | Bliss excess [7] | Bliss excess (NCI-H2731 (Mesothelioma)) | Bliss excess [8] | Bliss excess [9] | Bliss excess [10] | Bliss excess [11] | Bliss excess [12] | Bliss excess [13] | Bliss excess [14] | Bliss excess [15] | Bliss excess [16] | Bliss excess [17] | combination Emax [18] |
| --- | --- | --- | --- | --- | --- | --- | --- | --- | --- | --- | --- | --- | --- | --- | --- | --- | --- | --- | --- | --- |
| C=CCn1c(=O)c2cnc(Nc3ccc(N4CCN(C)CC4)cc3)nc2n1-c1cccc(C(C)(C)O)n1 [AZD1775] + C[C@@H]1COCCN1C2=NC(=NC(=C2)C3(CC3)[S@](=N)(=O)C)C4=C5C=CNC5=NC=C4 [AZD6738] (first compound max 1 µM, partner max 10 µM) | -0.0189 | 0.0576 | 0.0607 | -0.0639 | 0.0165 | -0.0177 | 0.0131 | -0.0247 | 0.0444 | 0.0804 | -0.0268 | 0.0567 | 0.0459 | 0.0554 | 0.0089 | 0.0046 | 0.0446 | 0.0007 | 0.0535 | 0.799 |
| CN(C)CCCOc1ccc(-c2ccc3ncc4c(c3c2)n(C2CCOCC2)c(=O)n4C)cn1 [AZD0156] + O=C(c1cc(Cc2n[nH]c(=O)c3ccccc23)ccc1F)N1CCN(C(=O)C2CC2)CC1 [Olaparib] (first compound max 3 µM, partner max 3 µM) | 0.0292 | 0.167 | 0.0284 | -0.0283 | -0.0615 | 0.0857 | 0.0782 | 0.0292 | 0.0068 | -0.0093 | -0.0022 | 0.0509 | 0.264 | -0.0031 | 0.122 | 0.0611 | 0.197 | -0.0166 | -0.0159 | 0.273 |
| CN(CCO)CC[C@H](CSc1ccccc1)Nc1ccc(S(=O)(=O)NC(=O)c2ccc(N3CCC([C@@H](O)c4ccccc4-c4ccc(Cl)cc4)CC3)cc2)cc1S(=O)(=O)C(F)(F)F [AZD4320] + C1CN(CCC1(C(=O)N[C@@H](CCO)C2=CC=C(C=C2)Cl)N)C3=NC=NC4=C3C=CN4 [Capivasertib] (first compound max 1 µM, 7x7, partner max 3 µM) | -0.0158 | -0.0075 | 0.0026 | -0.0429 | -0.0157 | -0.0244 | 0.0721 | -0.0434 | -0.0435 | -0.0545 | -0.0059 | -0.0441 | 0.0154 | -0.0284 | -0.0171 | -0.0345 | 0.0065 | -0.0411 | -0.0203 | 0.403 |
| Cn1cnc2c(F)c(Nc3ccc(Br)cc3Cl)c(C(=O)NOCCO)cc21 [Selumetinib] + C=CCn1c(=O)c2cnc(Nc3ccc(N4CCN(C)CC4)cc3)nc2n1-c1cccc(C(C)(C)O)n1 [AZD1775] (first compound max 10 µM, partner max 1 µM) | -0.0872 | -0.052 | -0.0037 | -0.066 | -0.0154 | -0.0084 | 0.0006 | -0.0767 | -0.042 | 0.0309 | -0.0377 | -0.0654 | -0.0367 | -0.005 | -0.056 | -0.0203 | 0.0041 | -0.0782 | 0.0934 | 0.652 |
